Source: patent publication EP2377861B1, “Water-soluble bis-triazinyl-pyridines, bipyridines and terpyridines, synthesis and use of same” (Karlsruher Institut für Technologie, priority 2010, dated 2011)

Assays:
[1] = Extraction with TODGA from HNO3, complexing agent in aqueous phase, distribution ratio by gamma spectrometry; conditions: for DEu(III) / DAm(III): 0.2 mol/L TODGA + 5 % vol. 1-Octanol in Kerosin; for SFEu(III)/Am(III): separation factor DEu(III)/DAm(III)
Text: (§1) D2EHPA bestimmt. Aus allen Versuchen wurden die Verteilungsverhältnisse (Verhältnis der organischen zur wässrigen Konzentration) von Am(III) und Eu(III) mittels Gamma-Spektrometrie bestimmt. Die Berechnung der Verteilungsverhältnisse DM ergibt sich aus den Zählraten des Gammazählers, welcher die radioaktiven ^241Am (III) - und ^152Eu(III) - Isotope in volumengleichen Proben der wässrigen bzw. der organischen Phase erfasst gem. der Gleichung DM=[M]org/[M]aq, wobei die Konzentration des Metalls M aus [M]=Zählrate/Volumen berechnet wird.
Es wurden […] und ^152Eu(III) (je ca. 1 kBq/mL) aus 0.09 / 0.18 / 0.44 / 0.88 / 1.8 mol/L HNO3 in eine organische Phase bestehend aus (0.2 mol/L TODGA + 5 % vol. 1-Octanol in Kerosin) extrahiert.
Es wurden ^241Am(III) und ^152Eu(III) (je ca. 1 kBq/mL) aus 0.5 mol/L HNO3 in eine organische Phase bestehend aus (0.2 mol/L TODGA + 5 % vol. 1-Octanol in Kerosin) extrahiert. Die wässrige Phase enthielt entweder 0 mmol/L oder 10 mmol/L SO3-Ph-BTBP.

[2] = Extraction with D2EHPA from HNO3, complexing agent in aqueous phase, distribution ratio by gamma spectrometry; conditions: for DAm(III) / DEu(III): 10 mmol/L SO3-Ph-BTP in aqueous phase, 0.1 mol/L D2EHPA in Kerosin; for SFEu(III)/Am(III): separation factor DEu(III)/DAm(III), D2EHPA
Text: as §1
Es wurden ^241Am(III) und ^152Eu(III) (je ca. 1 kBq/mL) aus 0.045 / 0.09 / 0.18 / 0.44 mol/L HNO3 in eine organische Phase bestehend aus (0.1 mol/L D2EHPA in Kerosin) extrahiert.

[3] = Back-extraction from loaded TODGA organic phase (simulated PUREX raffinate) into aqueous complexing agent solution; conditions: after back-extraction into 10 mmol/L SO3-Ph-BTP in water
Text: as §1
Einem inaktiven Simulat eines PUREX-Raffinats wurden ^241Am(III) und ^I52Eu(III) (je ca. 1 kBq/mL) zugegeben. Es wurde in eine organische Phase bestehend aus (0.2 mol/L TODGA + 5 % vol. 1-Octanol in Kerosin) extrahiert.

[4] = Solubility in water; type: physicochemical
[5] = loaded 0.2 mol/L TODGA + 5 % vol. 1-Octanol in Kerosin
[6] = 10 mmol/L SO3-Ph-BTBP in aqueous phase, 0.5 mol/L HNO3

## 2,6-Bis(5,6-di(sulfophenyl)-1,2,4-triazin-3-yl)pyridine [SO3-Ph-BTP]
[1]; 10 mmol/L SO3-Ph-BTP in aqueous phase, 0,09 mol/L HNO3
  DEu(III): 1.2
[1]; 10 mmol/L SO3-Ph-BTP in aqueous phase, 0,18 mol/L HNO3
  DEu(III): 11.9
[1]; 10 mmol/L SO3-Ph-BTP in aqueous phase, 0,44 mol/L HNO3
  DEu(III): 180
[1]; 10 mmol/L SO3-Ph-BTP in aqueous phase, 0,88 mol/L HNO3
  DEu(III): > 10^3
[1]; 10 mmol/L SO3-Ph-BTP in aqueous phase, 1,8 mol/L HNO3
  DEu(III): > 10^3
[1]; 10 mmol/L SO3-Ph-BTP, ca. 0.1-0.5 mol/L HNO3, TODGA
  Trennfaktor SFEu(III)/Am(III): 500-1000
[1]; 10 mmol/L complexing agent in aqueous phase, 0,09 mol/L HNO3
  DAm(III): 1.1·10^-3
[1]; 10 mmol/L complexing agent in aqueous phase, 0,18 mol/L HNO3
  DAm(III): 0.014
[1]; 10 mmol/L complexing agent in aqueous phase, 0,44 mol/L HNO3
  DAm(III): 0.35
[1]; 10 mmol/L complexing agent in aqueous phase, 0,88 mol/L HNO3
  DAm(III): 4.5
[1]; 10 mmol/L complexing agent in aqueous phase, 1,8 mol/L HNO3
  DAm(III): 90
[1]; 10 mmol/L complexing agent, 0,09 mol/L HNO3, TODGA
  SFEu(III)/Am(III): 1100
[1]; 10 mmol/L complexing agent, 0,18 mol/L HNO3, TODGA
  SFEu(III)/Am(III): 850
[1]; 10 mmol/L complexing agent, 0,44 mol/L HNO3, TODGA
  SFEu(III)/Am(III): 510
[1]; 10 mmol/L complexing agent, 0,88 mol/L HNO3, TODGA
  SFEu(III)/Am(III): > 220
[1]; 10 mmol/L complexing agent, 1,8 mol/L HNO3, TODGA
  SFEu(III)/Am(III): > 11
[2]; 0.045 mol/L HNO3
  DAm(III): 1.10^-3
  DEu(III): 5.3
[2]; 0.09 mol/L HNO3
  DAm(III): 4.10^-4
  DEu(III): 1.4
[2]; 0.18 mol/L HNO3
  DAm(III): 5.10^-5
  DEu(III): 0.37
[2]; 0.44 mol/L HNO3
  DAm(III): < d.l.
  DEu(III): 0.06
[2]; 10 mmol/L SO3-Ph-BTP, D2EHPA in Kerosin
  Trennfaktor SFEu(III)/Am(III): > 3000
[2]; 10 mmol/L SO3-Ph-BTP, 0.045 mol/L HNO3
  SFEu(III)/Am(III): 5200
[2]; 10 mmol/L SO3-Ph-BTP, 0.09 mol/L HNO3
  SFEu(III)/Am(III): 3400
[2]; 10 mmol/L SO3-Ph-BTP, 0.18 mol/L HNO3
  SFEu(III)/Am(III): 7000
[3]; [5]
  DAm(III): 0.059
  DEu(III): 49
[3]; loaded TODGA phase
  Trennfaktor SFEu(III)/Am(III): 830

## 6,6'-Bis(5, 6-di(sulfophenyl)-1, 2, 4-triazin-3-yl)-2,2'-bipyridine [SO3-Ph-BTBP]
[1]; [6]
  DAm(III): 0.33
  DEu(III): 150
[1]; 10 mmol/L SO3-Ph-BTBP, 0.5 mol/L HNO3, TODGA
  SFEu(III)/Am(III): 450
[4]
  Löslichkeit in Wasser: > 0.1 mol/L
